# System: COVID-19
# Assay: Retrospective analysis of international COVID-19 cohort (TriNetX COVID-19 Research Network), Dupilumab
# Type: in vivo, human
# Details: for Risk Difference (95% CI), Deceased / Risk Difference (95% CI), Ventilated: with vs without Dupilumab
# [1] = Diagnoses Matching, 65 patients with Dupilumab
# [2] = Dupilumab prescribed prior to COVID-19 diagnosis
# [3] = Full Cohort, 81 patients with Dupilumab
substance,measurement,setting,value
Dupilumab: anti-human IL4Rα monoclonal antibody that blocks IL-13 and IL-4 signaling; sold as DUPIXENT,Deceased (number of patients) With Dupilumab,"1:1 Propensity Score Matching, 81 patients",0
same,"Risk Difference (95% CI), Deceased",1:1 Propensity Score Matching,12.3% (5.2-19.5)
same,Serum C-Reactive Protein (CRP),COVID-19 patients With Dupilumab,25.3 mg/L
same,Deceased (number of patients) With Dupilumab,[1],0
same,Ventilated (number of patients) With Dupilumab,[1],0
same,"Risk Difference (95% CI), Deceased",Diagnoses Matching,1.83% (1.69-1.97)
same,"Risk Difference (95% CI), Ventilated",Diagnoses Matching,0.67% (0.58-0.75)
same,risk of death in COVID-19,[2],lower risk
same,risk of ventilation in COVID-19,[2],lower risk
same,CRP levels,Dupilumab-prescribed patients with COVID-19,reduced
same,Deceased (number of patients) With Dupilumab,[3],0
same,Ventilated (number of patients) With Dupilumab,[3],0
same,"Risk Difference (95% CI), Deceased",Full Cohort,1.98% (1.94-2.03)
same,"Risk Difference (95% CI), Ventilated",Full Cohort,0.37% (0.35-0.39)
same,CRP Sub-cohort Difference,With vs Without Dupilumab,12.
